Experimental data from patent EP4721736A1, “PHARMACEUTICAL COMPOSITION FOR EFFECTIVELY DELAYING AND TREATING MYOPIA” (priority 2023, dated 2024).
Counter-ions that a name gives are not always drawn.

What was measured:
[1] = tested on: negative lens-induced myopia; assay: Choroidal thickness (OCTA) in the LIM myopia model; assay type: in vivo, guinea pigs; conditions: after the 7-day administration experiment of Example 7; vs vehicle control group
Description: Using the animal subjects in Example 7, choroidal parameters were detected after completion of the experiment (a few animals died during the measurement due to reasons unrelated to the test drugs, so these samples were eliminated). Specifically, choroidal thickness was measured in the LIM myopia model animals after completion of the 7-day administration experiment. Commercially available OCTA (Spectralis HRA + OCT, OCTA, Heidelberg, Germany) modified to be more suitable for animal eyeballs was used to detect the choroidal thickness. Before detection, the guinea pigs were fully anesthetized.

[2] = tested on: negative lens-induced myopia; assay: Negative lens-induced myopia (LIM) model in guinea pigs: interocular difference in refraction; conditions: for refraction indicators vs vehicle group: after the end of the administration period (7 days); for refraction indicators vs vehicle group / efficacy (refraction) in comparison between groups: 0.4%, 100 µL daily; for efficacy (refraction) in comparison between groups: day 3 of administration
Text: (§1) Form-deprivation and lens-induced myopia models in guinea pigs are classic and recognized myopic animal models in the art, and may be used for evaluating efficacy and safety of myopia treatment drugs, and methods for establishing such models are well-known to those skilled in the art. For animal modeling and administration routes in the present application, reference is made to previously published scientific documents by the research group (Sen Zhang, Invest Ophthalmol Vis Sci. 2019 Jul 1; 60(8):3074-3083.; Miaozhen Pan, Exp Eye Res. 2021 Jan; 202:108332.).
After individuals with significant ocular diseases or abnormalities were eliminated from healthy 3-week-old tricolor guinea pigs (both males and females), by detecting refraction (using an infrared eccentric photorefraction device) and the eye axis (using A-scan ultrasonography), animals with refractive power between 3 diopters and 8.5 diopters (D), an interocular difference in refraction not exceeding 2 D, and both interocular differences in vitreous chamber depth and axial length not exceeding 0.05 mm were selected. These animals were randomly divided into the following 5 groups. • 1. Lens induction + vehicle control group (Control): monocular wear of a -4 D lens, with 100 µL of vehicle (DMSO:PEG300:Tween80:0.9% normal saline = 1:45:5:49) administrated to the lens-wearing eye daily for 1 week, and the number of samples = 11; • 2. Lens induction + R-alpha lipoic acid experimental group (R.ALA): monocular wear of a -4 D lens, with 100 µL of 0.4% R-alpha lipoic acid administrated to the lens-wearing eye daily for 1 week, and the number of samples = 15; • 3. Lens induction + S-alpha lipoic acid experimental group (S.ALA): monocular wear of a -4 D lens, with 100 µL of 0.4% S-alpha lipoic acid administrated to the lens-wearing eye daily for 1 week, and the number of samples = 13; • 4. Lens induction + dihydrolipoic acid experimental group (DHLA): monocular wear of a -4 D lens, with 100 µL of 0.4% dihydrolipoic acid administrated to the lens-wearing eye daily for 1 week, and the number of samples = 14; • 5.
Beginning on the day of modeling, the corresponding vehicle or drug was administrated to the experimental eye (lens-wearing eye) daily between 9:00 AM and 10:00 AM via periocular subconjunctival injection at an injection volume of 100 µL, once daily for 1 week. All procedures for negative lens-induced myopia modeling, peribulbar injection administration, detection of parameters such as refraction, and data processing for all the subjects were consistent with the schemes previously used by the research group (CN114796205B). At the beginning, on day 3, and at the end of the LIM model efficacy experiment, the refraction was detected in animal subjects. The statistical basis was the difference between the experimental eye (lens-wearing eye) and the contralateral eye of the same subject.

[3] = tested on: age-related macular degeneration; conditions: oral administration; Kim et al. 2020; cited from earlier work
form-deprivation myopia [4] = assay: Form-deprivation myopia model (FDM) in guinea pigs: interocular differences in refraction and eye axis parameters; conditions: for Difference in Refraction (Refraction, D) Mean / Difference in Axial Length (AL, mm) Mean / Difference in Vitreous Chamber Depth (VCD, mm) Mean: FD + 0.94% lipoic acid, experimental eye vs contralateral eye; for Difference in Refraction (Refraction, D) Mean: periocular subconjunctival injection 100 µL once daily; for Difference in Axial Length (AL, mm) Mean / Difference in Vitreous Chamber Depth (VCD, mm) Mean: subconjunctival injection once daily; for myopia inhibition rate: 0.94% lipoic acid compared to the vehicle control group
Text: as §1
After individuals with significant eye diseases or abnormalities were eliminated from three-week-old tricolor guinea pigs, by detecting refraction (using an infrared eccentric photorefraction device) and the eye axis (using A-scan ultrasonography), animals with refractive power between 3 and 8 diopters (D), an interocular difference in refraction not exceeding 2 D, and interocular differences in vitreous chamber depth and axial length not exceeding 0.05 mm were selected. These animals were randomly divided into two groups: an FD + vehicle control group (1% DMSO + 49% PEG300 + 50% normal saline, by volume) and an FD + 0.94% lipoic acid drug treatment group. At 8:00 AM on day 1 of the experiment, form deprivation was induced in the guinea pigs using a mask method, where the right eye (experimental eye) was occluded and the left eye was left unoccluded (contralateral eye). The FD induction was maintained throughout the entire period of the lipoic acid efficacy experiment, with the hoods only briefly removed for drug administration or ocular examination (for example, refraction detection). Starting on the first day of the efficacy experiment, position of the hood was checked daily at 8:00 AM, 12:00 PM, and 7:00 PM, as well as prior to administration. Individuals with hoods fell off more than three times during the administration period were excluded. Beginning on the day of modeling, the corresponding vehicle or drug (lipoic acid formulation) was administrated to the experimental eye daily between 9:00 AM and 10:00 AM via periocular subconjunctival injection at an injection volume of 100 µL. The vehicle or drug was administrated once daily for two consecutive weeks. Interocular refraction and eye axis parameters of all subjects were measured at the start of the efficacy experiment, 1 week after administration, and after the final administration. All data collection and processing methods were the same as those previously published by the laboratory of the inventors (Pan M, Zhao F, Xie B, et al. Dietary omega-3 polyunsaturated fatty acids are protective for myopia. Proc Natl Acad Sci U S A 2021 Oct 26; 118(43):e2104689118). Statistical basis was the difference between the experimental eye and the contralateral eye in the same subject.
Utilizing the same efficacy evaluation system for myopia treatment in the guinea pig form-deprivation model as described in Example 2, the prevention and control effects of mexidol, pyridoxol, astaxanthin, and blueberry fruit extract on myopia were compared against lipoic acid. The administration route was periocular subconjunctival injection.
The same efficacy evaluation system for myopia treatment in the guinea pig form-deprivation model as described in Example 2 was utilized to evaluate the myopia treatment effects of blueberry fruit extract + lipoic acid compound formulations at different prescription ratios. The administration route was periocular subconjunctival injection.

form-deprivation myopia [5] = assay: Choroidal thickness (OCT) in the guinea pig form-deprivation model; assay type: in vivo, guinea pigs
Description: Choroidal thickness of all animal subjects in Example 2 were detected using Spectralis HRA + OCT (Heidelberg Engineering, Heidelberg, Germany) for 30 minutes to 60 minutes after the final administration (of either the vehicle or lipoic acid).
After completion of the experiment, the choroidal thickness was detected in animals in the two control groups and the 0.5% lipoic acid choline ester eye drop administration group in Example 6 (some animals died during the measurement due to reasons unrelated to the test drugs, so the corresponding samples were eliminated).

myopia [6] = conditions: higher concentration of atropine; cited from earlier work
presbyopia [7] = conditions: cited from earlier work
presbyopia [8] = conditions: interim analysis, presbyopia treatment; cited from earlier work
myopia [9] = conditions: wild-type mouse myopia models; cited from earlier work
[10] = tested on: form-deprivation-induced myopia; conditions: mice with pigmentary degeneration of retina caused by a gene mutation (rd10); Landis et al. 2016; cited from earlier work

For `O=C(O)CCCC[C@@H](S)CCS` (racemic) [dihydrolipoic acid, Dihydrolipoic acid], the “choroidal thickness, experimental eye vs contralateral eye, FIG. 13” value [1] was “could effectively inhibit the decrease in choroidal thickness”, the “refraction indicators vs vehicle group” value [2] was “extremely significant differences compared with the vehicle group” and the “anterior chamber depth and lens thickness, FIG. 10” value ([2]; guinea pig, in vivo) was “did not affect the anterior chamber depth and lens thickness”. The ocular irritations ([2]; guinea pig, in vivo) was “neither the optical isomers of lipoic acid nor dihydrolipoic acid caused ocular irritations”.
In the case of `O=C(O)CCCCC1CCSS1` (stereo not drawn) [Lipoic acid, alpha-lipoic acid], the “efficacy, clinical endpoint” value [3] is given as “did not reach a clinical endpoint”, the “Difference in Refraction (Refraction, D) Mean” value (“Difference in Refraction” below) (form-deprivation myopia [4]; 1 Week) is given as -2.2 D and the “Difference in Axial Length (AL, mm) Mean” value (form-deprivation myopia [4]; 1 Week) is given as 0.04364 mm. The “Difference in Vitreous Chamber Depth (VCD, mm) Mean” value (from here on “Difference … (VCD, mm) Mean”) (form-deprivation myopia [4]; 1 Week) was 0.0009091 mm, the “Difference in Axial Length (AL, mm) Mean” value (form-deprivation myopia [4]; 1 Week, listed as lipoic acid) was 0.04364 + 0.03295 mm and the “Difference … (VCD, mm) Mean” value (form-deprivation myopia [4]; 1 Week, listed as lipoic acid) was 0.0009091 + 0.027 mm. The “Difference in Refraction” value (form-deprivation myopia [4]; 2 Weeks) was -4.673 D, the “Difference in Axial Length (AL, mm) Mean” value (form-deprivation myopia [4]; 2 Weeks) was 0.06364 mm and the “Difference … (VCD, mm) Mean” value (form-deprivation myopia [4]; 2 Weeks) was 0.08545 mm. The “Difference in Axial Length (AL, mm) Mean” value (form-deprivation myopia [4]; 2 Weeks, listed as lipoic acid) was 0.06364 ± 0.03722 mm, the “Difference … (VCD, mm) Mean” value (form-deprivation myopia [4]; 2 Weeks, listed as lipoic acid) was 0.08545 + 0.02067 mm and the “Difference in Refraction” value (form-deprivation myopia [4]; Baseline) was -0.04545 D. For the same compound, the “Difference in Axial Length (AL, mm) Mean” value (form-deprivation myopia [4]; Baseline) was -0.004545 mm, the “Difference … (VCD, mm) Mean” value (form-deprivation myopia [4]; Baseline) was 0.09273 mm and the “axial elongation and increase in vitreous chamber depth, FIG. 5” value (form-deprivation myopia [4]; Example 4, 0.3% R-alpha lipoic acid, subconjunctival injection, 1 and 2 weeks) was “could effectively inhibit the axial elongation and the increase in vitreous chamber depth”. For the same compound, the “refraction (interocular difference), FIG. 4” value (form-deprivation myopia [4]; Example 4, week 1 detection, 0.3% R-alpha lipoic acid (R-LA), periocular subconjunctival injection, compared with the other test drugs) was “optimal myopia treatment effect”, the “anterior chamber depth, lens thickness, corneal curvature” value (form-deprivation myopia [4]; guinea pig, in vivo) was “unaffected by the drug” and the “mydriatic effect (pupil diameter)” value (form-deprivation myopia [4]; guinea pig, in vivo) was “No mydriatic effect was observed”. For the same compound, the “toxic reactions, ocular irritations, significant ocular abnormalities” value (form-deprivation myopia [4]; guinea pig, in vivo) was “no any toxic reactions, ocular irritations, or significant ocular abnormalities were observed”, the myopia inhibition rate (form-deprivation myopia [4]; week 1 of treatment) was 42.4% and the myopia inhibition rate (form-deprivation myopia [4]; week 2 of treatment) was 21.1%. For the same compound, the “choroidal thickness, experimental eye vs contralateral eye” value (form-deprivation myopia [5]; animals of Example 2 (0.94% lipoic acid), 30 to 60 minutes after the final administration) was “could significantly inhibit the decrease in choroidal thickness in myopic eyes”.
For `O=C(O)CCCC[C@@H]1CCSS1` [R-alpha lipoic acid], the “refraction (interocular difference), FIG. 4” value (form-deprivation myopia [4]; Example 4, end of the administration period (2 weeks), subconjunctival injection, 0.05% atropine sulfate, 0.3% R-LA, 0.37% ES, 0.3% PH, 0.87% ASTA, 6% BFE, vs control) was “significant myopia treatment effects”, the “choroidal thickness, experimental eye vs contralateral eye, FIG. 13” value [1] was “could more significantly increase the choroidal thickness” and the “refraction indicators vs vehicle group” value [2] was “extremely significant differences compared with the vehicle group”. The “efficacy (refraction) in comparison between groups” value [2] was “superior to that of the dihydrolipoic acid group”.
With `O=C(O)CCCC[C@H]1CCSS1` [S-alpha lipoic acid] the “efficacy (refraction) in comparison between groups” value [2] was “superior to that of the dihydrolipoic acid group”.
In the case of `CN1[C@@H]2CC[C@H]1C[C@@H](OC(=O)C(CO)c1ccccc1)C2` (stereo partly drawn) [atropine sulfate, Atropine sulfate, reference compound], the effect upon discontinuation (myopia [6]) is given as “rebound effect upon discontinuation” and the “choroidal thickness, experimental eye vs contralateral eye, FIG. 13” value [1] is given as “could effectively inhibit the decrease in choroidal thickness”.
With `C[N+](C)(C)CCOC(=O)CCCC[C@@H]1CCSS1` [lipoic acid choline ester, R-alpha-Lipoic acid choline ester] the “axial elongation, FIG. 8-1 (B)” value (form-deprivation myopia [4]; Example 6, 0.5% LACE eye drops twice a day, 25 µL, vs vehicle) was “significantly inhibit the axial elongation”, the “dose-effect relationship of myopia treatment effect” value (form-deprivation myopia [4]; Example 6, LACE eye drops 0.5% and 0.15%) was “positively related dose-effect relationship” and the “progression of negative refraction, FIG. 8-1 (A)” value (form-deprivation myopia [4]; Example 6, direct eye drop instillation twice a day, 25 µL, 0.5% LACE, 0.05% atropine sulfate positive control, throughout the administration period, vs vehicle) was “could significantly inhibit progression of negative refraction”. For the same compound, the “anterior chamber depth, lens thickness, corneal curvature, FIG. 8-2” value (form-deprivation myopia [4]; guinea pig, in vivo) was “no statistical differences”, the drug-induced mydriasis (form-deprivation myopia [4]; guinea pig, in vivo) was “did not observe drug-induced mydriasis” and the “ocular abnormalities or mydriasis” value (form-deprivation myopia [4]; guinea pig, in vivo) was “no ocular abnormalities or mydriasis were observed”. For the same compound, the bioavailability (presbyopia [7]; eye drops at a concentration of 1.5%) was “good bioavailability”, the safety (presbyopia [7]; in vivo) was “high safety” and the primary endpoint (presbyopia [8]) was “fails to meet the primary endpoint”. For the same compound, the “thinning of the choroid (choroidal thickness), FIG. 12” value (form-deprivation myopia [5]; Example 9, 0.5% lipoic acid choline ester eye drops, after completion of Example 6, vs negative control group) was “could effectively inhibit thinning of the choroid”.
In the case of `O=C1O[C@H]([C@@H](O)CO)C(O)=C1O` [vitamin C, ascorbic acid], the “therapeutic effects on myopia” value (myopia [9]) is listed as “failed to achieve therapeutic effects” and the form-deprivation-induced myopia [10] is listed as “inhibit form-deprivation-induced myopia”.
